Test results: publication PMC4601051, “Discovery of Indoline-2-carboxamide Derivatives as a New Class of Brain-Penetrant Inhibitors of Trypanosoma brucei” (Journal of Medicinal Chemistry, 2015)
“And” between values parts separate entries of the source, which are not always exact repeats. Equal values may be shown once. Read-outs that look alike come from different tables or passages of the source.

Key:
[1] = Microsomal intrinsic clearance (Clint), mouse; type: in vitro ADME; details: mouse liver microsomes, 0.5 μM compound
Experimental: (§1) Each test compound (0.5 μM) was incubated with pooled female CDI mouse liver microsomes, pooled male Sprague–Dawley rat microsomes, or pooled mixed gender human liver microsomes (Tebu-Bio, UK; 0.5 mg/mL 50 mM potassium phosphate buffer, pH 7.4) and the reaction started with addition of excess NADPH (8 mg/mL, 50 mM potassium phosphate buffer, pH 7.4). Immediately, at time zero, then at 3, 6, 9, 15, and 30 min, an aliquot (50 μL) of the incubation mixture was removed and mixed with acetonitrile (100 μL) to stop the reaction. Internal standard was added to all samples, and the samples were centrifuged at 1825g for 10 min to sediment precipitated protein. The plates were then sealed prior to UPLC/MS/MS analysis using a Quattro Premier XE (Waters Corporation, USA).
(§2) XLfit (IDBS, UK) was used to calculate the exponential decay and consequently the rate constant (k) from the ratio of peak area of test compound to internal standard at each time point.

[2] = Microsomal intrinsic clearance (Clint), rat; type: in vitro ADME; details: rat liver microsomes, 0.5 μM compound
Experimental: as §1, §2

[3] = in vitro; details: human, MRC-5 fibroblasts
Experimental: Proliferation assays using bloodstream form T. brucei brucei and human MRC-5 fibroblasts were conducted using a modification of the cell viability assay as previously reported.[27],[39]
MRC-5 cells (2000 cells per well) were seeded in 200 μL of DMEM, 10% FCS, and allowed to adhere overnight. One microliter of test compound was added to each well on the day of assay initiation.
The final DMSO level was 0.5% in all cases.

[4] = Microsomal intrinsic clearance (Clint), human; type: in vitro ADME; details: human liver microsomes, 0.5 μM compound
Experimental: as §1, §2

[5] = test system: bloodstream form T. brucei brucei; assay: T. b. brucei whole cell parasite (trypanosome growth) assay; type: cell-based, Trypanosoma brucei brucei; details: for EC50: Trypanosoma brucei, mean of two or more determinations, 69 h + 4 h resazurin, read-out: T. b. brucei EC50; for loss in potency: T. b. brucei EC50, compared to 1 (parent)
Experimental: This was conducted as previously described.[27] Cell culture plates were stamped with 1 μL of an appropriate stock concentration of test compound, followed by addition of 200 μL of trypanosome culture (HMI9-T, 10% FCS) to each well at a density of 2000 cells per well (except column 12 receiving media only). […] Potency was carried out using 10-point dose–response curves.

[6] = In vivo mouse pharmacokinetics; details: female, mouse, in vivo, 10 mg/kg, NMRI mice; for AUC(0-t) at 8 h: read-out: AUC0–8; for AUC(0-t): read-out: AUC0–8 (converted)
Experimental: Each compound was dosed as a bolus solution intraperitoneally at 10 mg free base/kg (dose volume, 10 mL/kg; dose vehicles used, 10% DMSO; 40% PEG400; 50% Milli-Q water or 5% DMSO; 40% PEG400; 55% saline) to female HRN (1 only) or NMRI mice (n = 3) or dosed orally by gavage as a solution at 10 mg free base/kg (dose volume, 10 mL/kg; dose vehicle, 10% DMSO; 40% PEG400; 50% Milli-Q water) to female NMRI mice (n = 3). Female NMRI mice were chosen, as these represent the sex and strain used for the stage 1 and stage 2 HAT efficacy models. Blood samples were taken from each mouse at 5 (IP only), 15, and 30 min, 1, 2, 4, 6, and 8 h post dose, mixed with two volumes of distilled water, and stored frozen until UPLC/MS/MS analysis. Pharmacokinetic parameters were derived from noncompartmental analysis of the blood concentration time curve using PK solutions software v 2.0 (Summit Research Services, USA).

[7] = Plasma protein binding by equilibrium dialysis, mouse; type: in vitro ADME; details: read-out: plasma protein binding, Fu (fraction unbound)
Experimental: The software package StarDrop by Optibrium was used to calculate physicochemical parameters including log P, molecular weight, and polar surface area (PSA). The aqueous kinetic solubility of the compounds was measured using laser nephelometry as previously described.[40] The plasma protein binding of the compounds was determined by the equilibrium dialysis method.[12]

[8] = test system: panel of receptors, including dopamine, serotonin, histamine, and muscarinic receptors; assay: NIMH Psychoactive Drug Screening Program (PDSP) receptor panel; type: binding; details: significant inhibition is considered > 50%
Description: However, the observed toxicity prevents further progression of the compounds. To try and identify a possible driver for toxicity, that may then offer an opportunity to design out this unwanted effect, the key compounds were screened against a panel of receptors at the NIMH Psychoactive Drug Screening Program (PDSP).[36],[37] No significant activity against a large panel of receptors, including dopamine, serotonin, histamine, and muscarinic receptors (see Supporting Information) was observed.
S2: Details of receptors screened at the NIMH Psychoactive Drug Screening Program […]
receptors screened. Significant inhibition is considered > 50%. In cases where negative inhibition (-) is seen, this represents a stimulation of binding. The receptors screened were 5- […]
HT7, Alpha1A, Alpha1B, Alpha1D, Alpha2A, Alpha2B, Alpha2C, Beta1, Beta2, Beta3, BZP rat Brain site, D1, D2, D3, D4, D5, DAT, DOR, GABBA, H1, H2, H3, KOR, M1, M2, M3, M4, M5, MOR, NET, PBR, SERT, Sigma1 and Sigma2

[9] = Mouse brain penetration (brain:blood ratio); details: in vivo, dosed intravenously at 0.5 or 1 mg/kg, levels measured after 5 min, female NMRI mice, read-out: B:B (brain to blood ratio)
Experimental: Each compound was dosed as a bolus solution intravenously at 0.5 or 1 mg free base/kg (dose volume, 5 mL/kg; dose vehicle, 10% DMSO; 40% PEG400; 50% Milli-Q water) to female NMRI mice (n = 6). At 5 and 30 min following intravenous bolus injection of test compound, mice (n = 3/time point) were placed under terminal anesthesia with isofluorane. A blood sample was taken by cardiac puncture and mixed with two volumes of distilled water, the mice decapitated, and the brain removed. Diluted blood and brains were stored frozen until preparation and analysis by UPLC/MS/MS. For each mouse at each time point, the concentration in brain (ng/g) was divided by the concentration in blood (ng/mL) to give a brain:blood ratio. The mean value obtained was quoted.

SMILES: CNC(=O)C1Cc2ccccc2N1C(=O)COc1ccc(Cl)c(F)c1 (stereo not shown) [Compound 29]
- mouse microsomal intrinsic clearance [1]: 4.4 mL min^–1 g^–1
- microsomal intrinsic clearance, rat [2]: 13.5 mL min^–1 g^–1
- EC50 at 69 h [3]: > 50000 nM
- microsomal intrinsic clearance, human [4]: 3.3 mL min^–1 g^–1
- EC50 [5]: 30 nM

SMILES: CNC(=O)C1Cc2ccccc2N1C(=O)COc1ccccc1 (stereo not shown) [Compound 31]
- mouse microsomal intrinsic clearance [1]: 6.9 mL min^–1 g^–1
- microsomal intrinsic clearance, rat [2]: 9.0 mL min^–1 g^–1
- EC50 at 69 h [3]: > 50000 nM
- microsomal intrinsic clearance, human [4]: 1.4 mL min^–1 g^–1
- EC50 [5]: 40 nM

SMILES: CNC(=O)C1Cc2ccccc2N1C(=O)COc1ccc(C)cc1 (stereo not shown) [Compound 34]
- mouse microsomal intrinsic clearance [1]: 6.5 mL min^–1 g^–1
- microsomal intrinsic clearance, rat [2]: 47 mL min^–1 g^–1
- EC50 at 69 h [3]: > 50000 nM
- microsomal intrinsic clearance, human [4]: 2.4 mL min^–1 g^–1
- EC50 [5]: 30 nM

SMILES: CNC(=O)C1Cc2ccccc2N1C(=O)COc1ccc(F)cc1 (stereo not shown) [Compound 35, 1-(2-(4-fluorophenoxy)acetyl)-N-methylindoline-2-carboxamide]
- mouse microsomal intrinsic clearance [1]: 1.2 mL min^–1 g^–1 and 1.2/ND mL min^–1 g^–1
- Cmax ([6]; IP): 910 ng/mL and 2.8 µM
- Tmax ([6]; IP): 15 min
- half-life ([6]; IP): 66 min
- AUC(0-t) at 8 h ([6]; IP): 5.6 µM·h
- AUC(0-t) ([6]; IP): 1830 ng·h/mL
- Cmax ([6]; PO): 180 ng/mL and 550 nM
- Tmax ([6]; PO): 15 min
- half-life ([6]; PO): 42 min
- AUC(0-t) at 8 h ([6]; PO): 0.8 µM·h
- AUC(0-t) ([6]; PO): 250 ng·h/mL
- EC50 at 69 h [3]: > 50000 nM
- fraction unbound [7]: 0.42
- inhibition against receptors screened [8]: did not show significant inhibitor
- EC50 [5]: 20 nM
- Kp at 5 min [9]: 1.5

SMILES: CNC(=O)[C@H]1Cc2ccccc2N1C(=O)COc1ccc(F)cc1 [Compound 36]
- mouse microsomal intrinsic clearance [1]: 1.2 mL min^–1 g^–1
- microsomal intrinsic clearance, rat [2]: 4.9 mL min^–1 g^–1
- EC50 at 69 h [3]: > 50000 nM
- microsomal intrinsic clearance, human [4]: 1.3 mL min^–1 g^–1
- EC50 [5]: 40 nM

SMILES: CNC(=O)C1Cc2ccccc2N1C(=O)Cc1ccc(F)c(F)c1 (stereo not shown) [Compound 46]
- mouse microsomal intrinsic clearance [1]: 1.9 mL min^–1 g^–1
- EC50 at 69 h [3]: > 50000 nM
- EC50 [5]: 110 nM

SMILES: CCNC(=O)C1Cc2ccccc2N1C(=O)COc1ccc(Cl)cc1 (stereo not shown) [Compound 49]
- mouse microsomal intrinsic clearance [1]: 6.2 mL min^–1 g^–1
- EC50 at 69 h [3]: > 50000 nM
- EC50 [5]: 90 nM

SMILES: CCCCNC(=O)C1Cc2ccccc2N1C(=O)COc1ccc(Cl)cc1 (stereo not shown) [Compound 50]
- mouse microsomal intrinsic clearance [1]: 27 mL min^–1 g^–1
- EC50 at 69 h [3]: > 50000 nM
- loss in potency [5]: ~700 fold
- EC50 [5]: 19000 nM

SMILES: O=C(NC1CC1)C1Cc2ccccc2N1C(=O)COc1ccc(Cl)cc1 (stereo not shown) [Compound 51]
- mouse microsomal intrinsic clearance [1]: 5.5 mL min^–1 g^–1
- EC50 at 69 h [3]: > 50000 nM
- loss in potency [5]: ~14 fold
- EC50 [5]: 410 nM

SMILES: CNC(=O)C1Cc2cc(F)ccc2N1C(=O)COc1ccc(Cl)cc1 (stereo not shown) [Compound 54]
- mouse microsomal intrinsic clearance [1]: 2.8 mL min^–1 g^–1
- microsomal intrinsic clearance, rat [2]: 5.3 mL min^–1 g^–1
- EC50 at 69 h [3]: > 50000 nM
- microsomal intrinsic clearance, human [4]: 1.6 mL min^–1 g^–1
- EC50 [5]: 60 nM

SMILES: CNC(=O)C1Cc2cc(F)c(F)cc2N1C(=O)COc1ccc(F)cc1 (stereo not shown) [Compound 57]
- mouse microsomal intrinsic clearance [1]: 2.0 mL min^–1 g^–1
- microsomal intrinsic clearance, rat [2]: 2.8 mL min^–1 g^–1
- EC50 at 69 h [3]: > 50000 nM
- microsomal intrinsic clearance, human [4]: 1.9 mL min^–1 g^–1
- EC50 [5]: 90 nM

SMILES: CNC(=O)C1Cc2cc(F)cc(F)c2N1C(=O)COc1ccc(F)cc1 (stereo not shown) [Compound 58]
- mouse microsomal intrinsic clearance [1]: 2.9 mL min^–1 g^–1
- EC50 at 69 h [3]: > 50000 nM
- EC50 [5]: 80 nM

SMILES: CNC(=O)C1Cc2c(cc(F)c(F)c2F)N1C(=O)COc1ccc(Cl)cc1 (stereo not shown) [Compound 59]
- mouse microsomal intrinsic clearance [1]: 3.7 mL min^–1 g^–1
- microsomal intrinsic clearance, rat [2]: 6.7 mL min^–1 g^–1
- EC50 at 69 h [3]: > 50000 nM
- microsomal intrinsic clearance, human [4]: 4.3 mL min^–1 g^–1
- EC50 [5]: 70 nM

SMILES: CNC(=O)C1Cc2cc(Br)ccc2N1C(=O)COc1ccc(F)cc1 (stereo not shown) [Compound 60]
- mouse microsomal intrinsic clearance [1]: 4.6 mL min^–1 g^–1
- EC50 at 69 h [3]: > 50000 nM
- EC50 [5]: 80 nM

SMILES: CNC(=O)C1Cc2cc(-c3ccccc3)ccc2N1C(=O)COc1ccc(F)cc1 (stereo not shown) [Compound 61]
- microsomal intrinsic clearance, rat [2]: 25 mL min^–1 g^–1
- EC50 at 69 h [3]: > 50000 nM
- loss in potency [5]: ~10 fold
- EC50 [5]: 240 nM

SMILES: CNC(=O)C1N(C(=O)COc2ccc(Cl)cc2)c2ccccc2C1(C)C (stereo not shown) [Compound 63]
- mouse microsomal intrinsic clearance [1]: 14 mL min^–1 g^–1
- EC50 at 69 h [3]: > 50000 nM
- loss in potency [5]: ~34 fold
- EC50 [5]: 920 nM
